Measurements published in PubChem BioAssay AID248 (DTP/NCI, 2004).
Where “and” joins values, the source holds several entries; their conditions need not be identical. Equal entries are not always repeated. Inconclusive results and toxic doses are left out. No stated cut-off is given here; in the data, active means T/C of 150% or more; inactive means T/C below 125%.

Tested on: L1210 leukemia ip in BDF1 mice, survival T/C
Assay: NCI In Vivo Anticancer Drug Screen. Data for tumor model L1210 Leukemia (intraperitoneal) in B6D2F1 (BDF1) mice
Conditions: endpoint: mean survival time, higher = longer survival
Outline: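 Value reflects the ratio of survival in compound-treated mice to survival in vehicle-treated controls, with both groups carrying the same transplanted tumor.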

[1] = dose: 100.0 mg/kg/injection, schedule: Q01DX001 (ip), vehicle: saline
[2] = dose: 200.0 mg/kg/injection, schedule: Q01DX001 (ip), vehicle: saline
[3] = dose: 400.0 mg/kg/injection, schedule: Q01DX001 (ip), vehicle: saline
[4] = dose: 100.0 mg/kg/injection, schedule: Q01DX001 (ip), vehicle: carboxymethylcellulose (CMC)
[5] = dose: 100.0 mg/kg/injection, schedule: Q01DX001 (ip), vehicle: Klucel (hydroxypropylcellulose) (HPC)
[6] = dose: 200.0 mg/kg/injection, schedule: Q01DX001 (ip), vehicle: Klucel (hydroxypropylcellulose) (HPC)
[7] = dose: 400.0 mg/kg/injection, schedule: Q01DX001 (ip), vehicle: Klucel (hydroxypropylcellulose) (HPC)
[8] = dose: 100.0 mg/kg/injection, schedule: Q04DX003 (ip), vehicle: Klucel (hydroxypropylcellulose) (HPC)
[9] = dose: 200.0 mg/kg/injection, schedule: Q04DX003 (ip), vehicle: Klucel (hydroxypropylcellulose) (HPC)
[10] = dose: 25.0 mg/kg/injection, schedule: Q04DX002 (ip), vehicle: saline with Tween-80
[11] = dose: 100.0 mg/kg/injection, schedule: Q01DX009 (ip), vehicle: saline with Tween-80
[12] = dose: 200.0 mg/kg/injection, schedule: Q01DX009 (ip), vehicle: saline with Tween-80
[13] = dose: 100.0 mg/kg/injection, schedule: Q04DX003 (ip), vehicle: saline
[14] = dose: 200.0 mg/kg/injection, schedule: Q04DX003 (ip), vehicle: saline
[15] = dose: 400.0 mg/kg/injection, schedule: Q04DX003 (ip), vehicle: saline
[16] = dose: 100.0 mg/kg/injection, schedule: Q04DX002 (ip), vehicle: saline
[17] = dose: 100.0 mg/kg/injection, schedule: Q01DX009 (ip), vehicle: Klucel (hydroxypropylcellulose) (HPC)
[18] = dose: 200.0 mg/kg/injection, schedule: Q01DX009 (ip), vehicle: Klucel (hydroxypropylcellulose) (HPC)
[19] = dose: 50.0 mg/kg/injection, schedule: Q01DX009 (ip), vehicle: Klucel (hydroxypropylcellulose) (HPC)
[20] = dose: 400.0 mg/kg/injection, schedule: Q01DX009 (ip), vehicle: saline with Tween-80

Measured: T/C

O=C(Nc1ccc(NC2=NCCN2)cc1)c1cc(Cl)cc(C(=O)Nc2ccc(NC3=NCCN3)cc2)c1
inactive: dose: 7.5 mg/kg/injection, schedule: Q01DX010 (ip), vehicle: saline 100 % of control | dose: 15.0 mg/kg/injection, schedule: Q01DX010 (ip), vehicle: saline 95 % of control | dose: 15.0 mg/kg/injection, schedule: Q01DX Z (ip), vehicle: saline 105 % of control | dose: 30.0 mg/kg/injection, schedule: Q01DX Z (ip), vehicle: saline 105 % of control

CC(=O)Nc1ccc(SC2(Sc3ccc(NC(C)=O)cc3)c3ccccc3-c3ccccc32)cc1
inactive: [1] 92 % of control | [2] 98 % of control | [3] 100 % of control

O=[N+]([O-])c1ccc(N/N=C/C(Br)(Br)Br)c([N+](=O)[O-])c1
inactive: dose: 50.0 mg/kg/injection, schedule: Q01DX001 (ip), vehicle: carboxymethylcellulose (CMC) 99 % of control | [4] 94 % of control

CC(=O)OCCC/C(=C/c1ccc(/C=C(\CCCOC(C)=O)[N+](=O)[O-])cc1)[N+](=O)[O-]
inactive: [4] 92 % of control | dose: 200.0 mg/kg/injection, schedule: Q01DX001 (ip), vehicle: carboxymethylcellulose (CMC) 97 % of control | dose: 400.0 mg/kg/injection, schedule: Q01DX001 (ip), vehicle: carboxymethylcellulose (CMC) 91 % of control

O=S(=O)(NC/C=C/c1ccccc1)c1ccccc1
inactive: [5] 96 % of control | [6] 103 % of control | [7] 102 % of control

CCCCCCCCCCCCCCOS(=O)(=O)c1ccc(C)cc1
inactive: dose: 50.0 mg/kg/injection, schedule: Q01DX001 (ip), vehicle: saline 102 % of control | [1] 102 % of control | [2] 96 % of control | [3] 100 % of control

C/C(=N/Nc1ccc2c(O)cc(S(=O)(=O)O)cc2c1)c1ccc(Cl)cc1
inactive: dose: 75.0 mg/kg/injection, schedule: Q01DX009 (ip), vehicle: saline 101 % of control | dose: 150.0 mg/kg/injection, schedule: Q01DX009 (ip), vehicle: saline 98 % of control | dose: 300.0 mg/kg/injection, schedule: Q01DX009 (ip), vehicle: saline 96 % of control

COc1ccccc1N=Nc1ccc(O)c(C(=O)O)c1
inactive: [8] 102 % of control | [9] 103 % of control

O=C(O)CCCN1C(=O)C2C3CCC(C3)C2C1=O (stereo not given)
inactive: dose: 100.0 mg/kg/injection, schedule: Q04DX003 (ip), vehicle: saline with Tween-80 103 % of control | dose: 200.0 mg/kg/injection, schedule: Q04DX003 (ip), vehicle: saline with Tween-80 98 % of control | dose: 400.0 mg/kg/injection, schedule: Q04DX003 (ip), vehicle: saline with Tween-80 107 % of control

N#CSCC(CCCCCCCCC(=O)O)SC#N (stereo not given)
inactive: dose: 12.5 mg/kg/injection, schedule: Q04DX002 (ip), vehicle: saline with Tween-80 91 % of control | [10] 100 % of control

N#CC1(c2ccccc2)CC(C(=O)c2ccccc2)C(O)(c2ccccc2)CC1c1ccccc1 (stereo not given)
inactive: dose: 50.0 mg/kg/injection, schedule: Q01DX009 (ip), vehicle: saline with Tween-80 101 % of control | [11] 108 % of control | [12] 101 % of control

CCCCOP(=O)(c1ccccc1)N1CCCCC1 (stereo not given)
inactive: [10] 103 % of control | dose: 50.0 mg/kg/injection, schedule: Q04DX002 (ip), vehicle: saline with Tween-80 103 % of control | dose: 100.0 mg/kg/injection, schedule: Q04DX002 (ip), vehicle: saline with Tween-80 92 % of control and 107 % of control

O=C1c2ccccc2C(=O)N1C1CCCCCCC1
inactive: dose: 100.0 mg/kg/injection, schedule: Q04DX002 (ip), vehicle: Klucel (hydroxypropylcellulose) (HPC) 94 % of control | dose: 200.0 mg/kg/injection, schedule: Q04DX002 (ip), vehicle: Klucel (hydroxypropylcellulose) (HPC) 100 % of control | dose: 400.0 mg/kg/injection, schedule: Q04DX002 (ip), vehicle: Klucel (hydroxypropylcellulose) (HPC) 97 % of control

O=c1[nH]c(=O)c2c3c(sc2[nH]1)CCCC3
inactive: dose: 100.0 mg/kg/injection, schedule: Q01DX001 (ip), vehicle: saline sonified 91 % of control | dose: 200.0 mg/kg/injection, schedule: Q01DX001 (ip), vehicle: saline sonified 91 % of control | dose: 400.0 mg/kg/injection, schedule: Q01DX001 (ip), vehicle: saline sonified 103 % of control

Nc1nc(-c2ccc(O)cc2)nc2[nH]ncc12
inactive: [5] 91 % of control | [6] 100 % of control | [7] 94 % of control

[Cl][Gd]([Cl])[Cl]
inactive: [13] 94 % of control | [14] 115 % of control | [15] 95 % of control

CCC1C(=O)N(C)c2ccccc21 (stereo not given)
inactive: dose: 100.0 mg/kg/injection, schedule: Q01DX001 (ip), vehicle: acetone 100 % of control | dose: 200.0 mg/kg/injection, schedule: Q01DX001 (ip), vehicle: acetone 96 % of control | dose: 400.0 mg/kg/injection, schedule: Q01DX001 (ip), vehicle: acetone 97 % of control

CCCCCNCCC[P+](c1ccccc1)(c1ccccc1)c1ccccc1
inactive: dose: 25.0 mg/kg/injection, schedule: Q04DX002 (ip), vehicle: saline 98 % of control | dose: 50.0 mg/kg/injection, schedule: Q04DX002 (ip), vehicle: saline 105 % of control | [16] 119 % of control

COc1ccccc1NC(=O)Nc1cccc(C)c1C
inactive: [17] 96 % of control | [8] 93 % of control | [18] 92 % of control | [9] 93 % of control | dose: 400.0 mg/kg/injection, schedule: Q01DX009 (ip), vehicle: Klucel (hydroxypropylcellulose) (HPC) 100 % of control | dose: 400.0 mg/kg/injection, schedule: Q04DX003 (ip), vehicle: Klucel (hydroxypropylcellulose) (HPC) 92 % of control

NC(N)=NC(N)=Nc1cccc(Cl)c1
inactive: dose: 25.0 mg/kg/injection, schedule: Q01DX009 (ip), vehicle: Klucel (hydroxypropylcellulose) (HPC) 108 % of control and 88 % of control | [19] 94 % of control and 97 % of control | [5] 93 % of control | [8] 105 % of control | [6] 103 % of control

O=C(O)C1C2CC(O)C(C2)C1C(=O)O (stereo not given)
inactive: dose: 100.0 mg/kg/injection, schedule: Q01DX001 (ip), vehicle: saline with Tween-80 94 % of control | [11] 93 % of control | dose: 100.0 mg/kg/injection, schedule: Q01DX009 (ip), vehicle: saline 105 % of control | [13] 94 % of control | dose: 200.0 mg/kg/injection, schedule: Q01DX001 (ip), vehicle: saline with Tween-80 98 % of control | [12] 95 % of control | dose: 200.0 mg/kg/injection, schedule: Q01DX009 (ip), vehicle: saline 105 % of control | [14] 96 % of control | dose: 400.0 mg/kg/injection, schedule: Q01DX001 (ip), vehicle: saline with Tween-80 100 % of control | [20] 96 % of control | dose: 400.0 mg/kg/injection, schedule: Q01DX009 (ip), vehicle: saline 98 % of control | [15] 93 % of control

CCCCCCCCN(CCCCCCCC)C(C)C(=O)c1ccc2cc(Br)c3ccccc3c2c1 (stereo not given)
inactive: dose: 100.0 mg/kg/injection, schedule: Q04DX003 (ip), vehicle: acetone 96 % of control | dose: 200.0 mg/kg/injection, schedule: Q04DX003 (ip), vehicle: acetone 107 % of control | dose: 400.0 mg/kg/injection, schedule: Q04DX003 (ip), vehicle: acetone 103 % of control

CCOC(=O)N(CCCl)C(=O)C(C)C
inactive: [11] 92 % of control | [12] 96 % of control | [20] 94 % of control

O=C(NCCCCCCNC(=O)N(Cc1ccccc1)Cc1ccccc1)N(Cc1ccccc1)Cc1ccccc1
inactive: [16] 105 % of control | dose: 200.0 mg/kg/injection, schedule: Q04DX002 (ip), vehicle: saline 97 % of control | dose: 400.0 mg/kg/injection, schedule: Q04DX002 (ip), vehicle: saline 108 % of control

CC12OC1(C)C1(C)C3(C)OC3(C)C21C (stereo not given)
inactive: [19] 97 % of control | [5] 100 % of control | [17] 96 % of control | [6] 100 % of control | [18] 96 % of control
